The experiment addresses dihydroorotate dehydrogenase (DHODH) (Homo sapiens, UniProt Q02127). As to the kind of experiment: recombinant DHODH enzyme assay. The experiment is classed as biochemical.

Structures are written as SMILES.

Sequence of dihydroorotate dehydrogenase (DHODH) (Q02127 whole entry): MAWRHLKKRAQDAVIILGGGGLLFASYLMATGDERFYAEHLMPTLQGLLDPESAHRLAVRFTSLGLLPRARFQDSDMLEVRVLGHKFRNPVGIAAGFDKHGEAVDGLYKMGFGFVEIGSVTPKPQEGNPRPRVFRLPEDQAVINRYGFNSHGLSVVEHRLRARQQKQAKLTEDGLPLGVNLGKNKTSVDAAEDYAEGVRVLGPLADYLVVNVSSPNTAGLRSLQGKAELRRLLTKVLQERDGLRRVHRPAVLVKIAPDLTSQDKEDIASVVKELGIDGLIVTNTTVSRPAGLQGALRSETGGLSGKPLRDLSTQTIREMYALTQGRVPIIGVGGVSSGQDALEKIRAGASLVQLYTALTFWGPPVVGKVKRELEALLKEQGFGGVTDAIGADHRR

In the case of `C/C(O)=C(\C#N)C(=O)Nc1ccc(C(F)(F)F)cc1` [teriflunomide], the “recombinant DHODH enzyme assay; isolated mitochondria assay” value is on record as “inhibited the activity of recombinant DHODH using in vitro enzyme assays, though not as potently as do brequinar or teriflunomide”.

For the origin of these results see paper PMC6318026 (Molecular cancer therapeutics, 2018).
